Data published in patent US20230183216A1, “PYRIDIZIN-3(2H)-ONE DERIVATIVES” (Gilead Sciences, Inc., priority 2021, published 2023).

Legend:
[1] = tested on: STAT1 (phosphorylated at Tyr701) in NCI-H1373 cells; test: Phospho-STAT1 (Tyr701) LANCE Ultra TR-FRET Detection Assay; format: cell-based; conditions: Homo sapiens, 48 hours, induction of pSTAT1, normalized to 10 uM positive control and DMSO, 4-parameter fit, read-out: NH1373 pSTAT1 EC50
Method: Phospho-STAT1 (Tyr701 LANCE Ultra TR-FRET Detection Assay
LANCE Ultra phospho-STAT1 (Tyr701) kits available from Perkin Elmer are designed for the detection of phosphorylated STAT1 in cell lysates using a simple, homogeneous LANCE Ultra sandwich assay (Cat. #TRF4028M). This assay is intended for assessing compound induction of endogenous levels of cellular STAT1 (phosphorylated at Tyr701) in NCI-H1373 cells. The NCI-H1373 cells are cultured in RPMI 1640 media containing 10% heat inactivated FBS, GlutaMAX, 1% Penicillin-Streptomycin. An Echo acoustic liquid handler is used to transfer 60 nanoliters of compound dilutions using the Echo Qualified, 384-well polypropylene microplate clear flat bottom source plates into a Greiner (#781080) cell culture microplate. NCI-H1373 cells are seeded into these compound-spotted culture plates at 30,000 cells/well in a 60 uL volume in growth media. The plates are incubated in a 5% CO2 humidified incubator at 37° C. for 48 hours. […] Briefly, 20 μL of supplemented lysis buffer is added to each well and allowed to shake for 1 hour at 400 rpm. Next, 5 ul of remixed antibody solutions (vol/vol) prepared in detection buffer are added to each well and allowed to incubate at room temperature overnight. After spinning the plate down at 300 rpm for […], the plate is read on an EnVision plate reader set up for Eu3+ Cryptate and fluorescence emission is measured at two different wavelengths (665 nm and 620 nm).

[2] = molecular target: T1, PARP7 (Homo sapiens, UniProt Q7Z3E1); test: biochemical;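 note: MSD light signal quantifying PARP7 captured by a plate-immobilized probe, read after 1.5 h equilibration plus 1.5 h with SULFO-TAG anti-GST antibody at room temperature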
T1 sequence (Q7Z3E1 1-657): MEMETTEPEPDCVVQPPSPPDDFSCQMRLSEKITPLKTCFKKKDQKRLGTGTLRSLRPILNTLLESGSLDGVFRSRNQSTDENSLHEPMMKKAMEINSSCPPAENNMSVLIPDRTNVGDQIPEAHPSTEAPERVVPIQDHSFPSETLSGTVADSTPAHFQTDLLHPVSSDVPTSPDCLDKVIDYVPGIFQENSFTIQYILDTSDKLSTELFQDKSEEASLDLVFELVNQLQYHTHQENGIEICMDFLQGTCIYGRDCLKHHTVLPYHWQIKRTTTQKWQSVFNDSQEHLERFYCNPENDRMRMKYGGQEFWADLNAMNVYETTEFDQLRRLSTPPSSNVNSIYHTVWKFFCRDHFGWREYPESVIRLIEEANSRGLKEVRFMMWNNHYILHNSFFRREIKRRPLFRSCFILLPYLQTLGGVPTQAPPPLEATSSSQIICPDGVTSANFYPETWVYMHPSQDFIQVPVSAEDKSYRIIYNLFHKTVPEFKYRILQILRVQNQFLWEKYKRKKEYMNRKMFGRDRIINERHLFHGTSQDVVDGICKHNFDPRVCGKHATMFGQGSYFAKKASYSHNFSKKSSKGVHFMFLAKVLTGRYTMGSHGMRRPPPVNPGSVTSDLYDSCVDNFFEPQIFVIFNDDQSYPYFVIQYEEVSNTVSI
Method: Probe Displacement Assay for PARP7 Displacement of a biotinylated probe (RBN011147; Wigle et al., Cell Chemical Biology, 2020, pp. 877-887) from the PARP7 NAD+-binding site was measured in vitro using a Mesoscale Discovery electrochemiluminescent assay. […] Next, 10 μl of 10 nM PARP7 protein incubated for 1 hour at room temperature with a dose response curve of each test compound in a Greiner LDV polypropylene plate (#781201) is added to the MSD plate containing the immobilized probe. The interaction is allowed to reach equilibrium for 1.5 hours, and then 10 ul of SULFO-TAG labeled anti-GST antibody (Cat #R32AA-1) is added to each well and allowed to incubate for an additional 1.5 hours at room temperature. Finally, 10 μl of MSD read buffer T (4×, Cat. #R92C-1) is added to each well using a Bravo liquid handler to prevent air bubbles in the wells, and the plates are subsequently read in an MSD instrument. Light intensity is then measured to quantify the amount of PARP7 bound to the immobilized probe on the plate.

Structure (SMILES)	EC50 [1]	IC50 [2]
O=C(CCC[C@@H]1CCc2c1n[nH]c(=O)c2C(F)(F)F)N1CCN(c2ncc(C(F)(F)F)cn2)CC1 [Example 78, (R)-7-(4-oxo-4-(4-(5-(trifluoromethyl)pyrimidin-2-yl)piperazin-1-yl)butyl)-4-(trifluoromethyl)-2,5,6,7-tetrahydro-3H-cyclopenta[c]pyridazin-3-one]	24.1 nM	0.142 nM
O=C([C@@H]1Cc2ccccc2N1c1cc(C(F)(F)F)c(=O)[nH]n1)N1CCN(c2ncc(C(F)(F)F)cn2)CC1 [Example 49, 5-(trifluoromethyl)-3-[(2S)-2-[4-[5-(trifluoromethyl)pyrimidin-2-yl]piperazine-1-carbonyl]indolin-1-yl]-1H-pyridazin-6-one]	858 nM	1.1 nM
O=C([C@@H]1CN(Cc2cc(C(F)(F)F)c(=O)[nH]n2)CCO1)N1CCN(c2ncc(C(F)(F)F)cn2)CC1 [Example 74, 5-(trifluoromethyl)-3-[[(2S)-2-[4-[5-(trifluoromethyl)pyrimidin-2-yl]piperazine-1-carbonyl]morpholin-4-yl]methyl]-1H-pyridazin-6-one]	1790 nM	2.01 nM
O=C([C@@H]1CCN1c1cc(C(F)(F)F)c(=O)[nH]n1)N1CCN(c2ncc(C(F)(F)F)cn2)CC1 [Example 55, 5-(trifluoromethyl)-3-[(2S)-2-[4-[5-(trifluoromethyl)pyrimidin-2-yl]piperazine-1-carbonyl]azetidin-1-yl]-1H-pyridazin-6-one]	282 nM	0.339 nM
O=C(c1cccc(Nc2cc(C(F)(F)F)c(=O)[nH]n2)c1)N1CCN(c2ncc(C(F)(F)F)cn2)CC1 [Example 18, 4-(trifluoromethyl)-6-((3-(4-(5-(trifluoromethyl)pyrimidin-2-yl)piperazine-1-carbonyl)phenyl)amino)pyridazin-3(2H)-one]	≥ 10000 nM	32.7 nM
O=C(N1CCN(c2ncc(C(F)(F)F)cn2)CC1)N1CCC[C@@H](Nc2cc(C(F)(F)F)c(=O)[nH]n2)C1 [Example 38, (R)-4-(trifluoromethyl)-6-((1-(4-(5-(trifluoromethyl)pyrimidin-2-yl)piperazine-1-carbonyl)piperidin-3-yl)amino)pyridazin-3(2H)-one]	1870 nM	2.71 nM
O=C(CCCN(c1ccccc1)c1cc(C(F)(F)F)c(=O)[nH]n1)N1CCN(c2ncc(C(F)(F)F)cn2)CC1 [Example 44, 6-((4-oxo-4-(4-(5-(trifluoromethyl)pyrimidin-2-yl)piperazin-1-yl)butyl)(phenyl)amino)-4-(trifluoromethyl)pyridazin-3(2H)-one]	74.1 nM	0.151 nM
O=C([C@H](O)CCNc1cc(C(F)(F)F)c(=O)[nH]n1)N1CCN(c2ncc(C(F)(F)F)cn2)CC1 [Example 26, (R)-6-((3-hydroxy-4-oxo-4-(4-(5-(trifluoromethyl)pyrimidin-2-yl)piperazin-1-yl)butyl)amino)-4-(trifluoromethyl)pyridazin-3(2H)-one]	901 nM	1.6 nM
O=C(CCC1Cc2ccccc2N1c1cc(C(F)(F)F)c(=O)[nH]n1)N1CCN(c2ncc(C(F)(F)F)cn2)CC1 (stereo not drawn) [Example 47, 3-[2-[3-oxo-3-[4-[5-(trifluoromethyl)pyrimidin-2-yl]piperazin-1-yl]propyl]indolin-1-yl]-5-(trifluoromethyl)-1H-pyridazin-6-one]	179 nM	0.232 nM
O=C(CC[C@@H]1COCCN1c1cc(C(F)(F)F)c(=O)[nH]n1)N1CCN(c2ncc(C(F)(F)F)cn2)CC1 [Example 42, (R)-6-(3-(3-oxo-3-(4-(5-(trifluoromethyl)pyrimidin-2-yl)piperazin-1-yl)propyl)morpholino)-4-(trifluoromethyl)pyridazin-3(2H)-one]	901 nM	0.598 nM
O=C(CNc1cc(C(F)(F)F)c(=O)[nH]n1)N1CCN(c2ncc(C(F)(F)F)cn2)CC1 [Example 16, 6-((2-oxo-2-(4-(5-(trifluoromethyl)pyrimidin-2-yl)piperazin-1-yl)ethyl)amino)-4-(trifluoromethyl)pyridazin-3(2H)-one]	171 nM	1.15 nM
CCCN(CCCC(=O)N1CCN(c2ncc(C(F)(F)F)cn2)CC1)c1cc(C(F)(F)F)c(=O)[nH]n1 [Example 37, 6-((4-oxo-4-(4-(5-(trifluoromethyl)pyrimidin-2-yl)piperazin-1-yl)butyl)(propyl)amino)-4-(trifluoromethyl)pyridazin-3(2H)-one]	134 nM	0.28 nM
O=C(CC[C@H]1CCCCN1c1cc(C(F)(F)F)c(=O)[nH]n1)N1CCN(c2ncc(C(F)(F)F)cn2)CC1 [Example 33, (R)-6-(2-(3-oxo-3-(4-(5-(trifluoromethyl)pyrimidin-2-yl)piperazin-1-yl)propyl)piperidin-1-yl)-4-(trifluoromethyl)pyridazin-3(2H)-one]	1220 nM	2.92 nM
O=C([C@@H]1Cc2ccccc2CN1c1cc(C(F)(F)F)c(=O)[nH]n1)N1CCN(c2ncc(C(F)(F)F)cn2)CC1 [Example 57, 5-(trifluoromethyl)-3-[(3S)-3-[4-[5-(trifluoromethyl)pyrimidin-2-yl]piperazine-1-carbonyl]-3,4-dihydro-1H-isoquinolin-2-yl]-1H-pyridazin-6-one]	1710 nM	4.37 nM
O=C([C@@H]1C[C@@H]1CNc1cc(C(F)(F)F)c(=O)[nH]n1)N1CCN(c2ncc(C(F)(F)F)cn2)CC1 (racemic) [Example 24, Cis-(+)-4-(trifluoromethyl)-6-(((2-(4-(5-(trifluoromethyl)pyrimidin-2-yl)piperazine-1-carbonyl)cyclopropyl)methyl)amino)pyridazin-3(2H)-one]	2940 nM	1.02 nM
O=C(C[C@@H]1CCN(c2cc(C(F)(F)F)c(=O)[nH]n2)C1)N1CCN(c2ncc(C(F)(F)F)cn2)CC1 [Example 67, 3-[(3S)-3-[2-oxo-2-[4-[5-(trifluoromethyl)pyrimidin-2-yl]piperazin-1-yl]ethyl]pyrrolidin-1-yl]-5-(trifluoromethyl)-1H-pyridazin-6-one]	2270 nM	0.848 nM
[2H]C1([2H])N(C(=O)CCCCc2cc(C(F)(F)F)c(=O)[nH]n2)C([2H])([2H])C([2H])([2H])N(c2ncc(C(F)(F)F)cn2)C1([2H])[2H] [Example 52, 3-[5-[2,2,3,3,5,5,6,6-octadeuterio-4-[5-(trifluoromethyl)pyrimidin-2-yl]piperazin-1-yl]-5-oxo-pentyl]-5-(trifluoromethyl)-1H-pyridazin-6-one]	209 nM	0.359 nM
O=C(N1CCN(c2ncc(C(F)(F)F)cn2)CC1)C1(CCCc2cc(C(F)(F)F)c(=O)[nH]n2)CC1 [Example 9, 4-(trifluoromethyl)-6-(3-(1-(4-(5-(trifluoromethyl)pyrimidin-2-yl)piperazine-1-carbonyl)cyclopropyl)propyl)pyridazin-3(2H)-one]	1800 nM	1.44 nM
O=C([C@@H](O)CCNc1cc(C(F)(F)F)c(=O)[nH]n1)N1CCN(c2ncc(C(F)(F)F)cn2)CC1 [Example 25, (S)-6-((3-hydroxy-4-oxo-4-(4-(5-(trifluoromethyl)pyrimidin-2-yl)piperazin-1-yl)butyl)amino)-4-(trifluoromethyl)pyridazin-3(2H)-one]	21.3 nM	0.141 nM
O=C(CC1(CNc2cc(C(F)(F)F)c(=O)[nH]n2)CC1)N1CCN(c2ncc(C(F)(F)F)cn2)CC1 [Example 12, 6-(((1-(2-oxo-2-(4-(5-(trifluoromethyl)pyrimidin-2-yl)piperazin-1-yl)ethyl)cyclopropyl)methyl)amino)-4-(trifluoromethyl)pyridazin-3(2H)-one]	201 nM	0.364 nM
O=C(OC/C=C/c1cc(C(F)(F)F)c(=O)[nH]n1)N1CCN(c2ncc(C(F)(F)F)cn2)CC1 [Example 14, (E)-3-(6-oxo-5-(trifluoromethyl)-1,6-dihydropyridazin-3-yl)allyl 4-(5-(trifluoromethyl)pyrimidin-2-yl)piperazine-1-carboxylate]	1000 nM	1.22 nM
